Source: patent US10959432B2, “Microbiocidal oxadiazole derivatives” (Syngenta Participations AG, priority 2016, dated 2021)

Experiments:
[1] = system: Puccinia recondita f. sp. tritici; assay: Fungicidal activity against Puccinia recondita f. sp. tritici / wheat / leaf disc preventative (brown rust); format: in vivo; conditions: foliar, 200 ppm in the applied formulation, wheat leaf segments cv. Kanzler, preventative (inoculated 1 day after application), assessed 7 to 9 days after application, read-out: disease control compared to untreated control leaf disks
Method: (§1) Leaf disks or leaf segments of various plant species are cut from plants grown in a greenhouse. The cut leaf disks or segments are placed in multiwell plates (24-well format) onto water agar. The leaf disks are sprayed with a test solution before (preventative) or after (curative) inoculation. Compounds to be tested are prepared as DMSO solutions (max. 10 mg/ml) which are diluted to the appropriate concentration with 0.025% Tween20 just before spraying. The inoculated leaf disks or segments are incubated under defined conditions (temperature, relative humidity, light, etc.) according to the respective test system. A single evaluation of disease level is carried out 3 to 14 days after inoculation, depending on the pathosystem. Percent disease control relative to the untreated check leaf disks or segments is then calculated. General Examples of Liquid Culture Tests in Well Plates:
Example 1: Fungicidal Activity Against Puccinia recondita f. sp. tritici/Wheat/Leaf Disc Preventative (Brown Rust)
Wheat leaf segments cv. Kanzler were placed on agar in multiwell plates (24-well format) and sprayed with the formulated test compound diluted in water. The leaf disks were inoculated with a spore suspension of the fungus 1 day after application. The inoculated leaf segments were incubated at 19C and 75% relative humidity (rh) under a light regime of 12 hours light/12 hours darkness in a climate cabinet and the activity of a compound was assessed as percent disease control compared to untreated when an appropriate level of disease damage appears in untreated check leaf segments (7 to 9 days after application).
(§2) The following compounds at 200 ppm in the applied formulation give at least 80% disease control in this test when compared to untreated control leaf disks under the same conditions, which show extensive disease development.

[2] = system: Puccinia recondita f. sp. tritici; assay: Fungicidal activity against Puccinia recondita f. sp. tritici / wheat / leaf disc curative (brown rust); format: in vivo; conditions: foliar, 200 ppm in the applied formulation, wheat leaf segments cv. Kanzler, curative (applied 1 day after inoculation), assessed 6 to 8 days after application, read-out: disease control compared to untreated control leaf disks
Method: as §1
Example 2: Fungicidal Activity Against Puccinia recondita f. sp. Tritici/Wheat/Leaf Disc Curative (Brown Rust)
Wheat leaf segments cv. Kanzler are placed on agar in multiwell plates (24-well format). The leaf segments are then inoculated with a spore suspension of the fungus. Plates were stored in darkness at 19° C. and 75% relative humidity. The formulated test compound diluted in water was applied 1 day after inoculation. The leaf segments were incubated at 19° C. and 75% relative humidity under a light regime of 12 hours light/12 hours darkness in a climate cabinet and the activity of a compound was assessed as percent disease control compared to untreated when an appropriate level of disease damage appears in untreated check leaf segments (6 to 8 days after application).
as §2

Phakopsora pachyrhizi = assay: Fungicidal activity against Phakopsora pachyrhizi / soybean / leaf disc preventative (Asian soybean rust); format: in vivo; conditions: foliar, 200 ppm in the applied formulation, soybean leaf disks, preventative (inoculated one day after application), assessed 12 to 14 days after application, read-out: disease control compared to untreated control leaf disks
Method: as §1
Example 3: Fungicidal Activity Against Phakopsora pachyrhizi/Soybean/Leaf Disc Preventative (Asian Soybean Rust)
Soybean leaf disks are placed on water agar in multiwell plates (24-well format) and sprayed with the formulated test compound diluted in water. One day after application leaf discs are inoculated by spraying a spore suspension on the lower leaf surface. After an incubation period in a climate cabinet of 24-36 hours in darkness at 20° C. and 75% rh leaf disc are kept at 20° C. with 12 h light/day and 75% rh. The activity of a compound is assessed as percent disease control compared to untreated when an appropriate level of disease damage appears in untreated check leaf disks (12 to 14 days after application).
as §2

[3] = system: Glomerella laqenarium (Colletotrichum lagenarium); assay: Fungicidal activity against Glomerella lagenarium (Colletotrichum lagenarium) liquid culture / cucumber / preventative (anthracnose); format: cell-based; conditions: Colletotrichum orbiculare; 20 ppm in the applied formulation; liquid culture in PDB, 24° C., 3 to 4 days after application; read-out: disease control compared to untreated control (inhibition of growth measured photometrically)
Method: Mycelia fragments or conidia suspensions of a fungus prepared either freshly from liquid cultures of the fungus or from cryogenic storage, are directly mixed into nutrient broth. DMSO solutions of the test compound (max. 10 mg/ml) are diluted with 0.025% Tween20 by a factor of 50 and 10 μl of this solution is pipetted into a microtiter plate (96-well format). The nutrient broth containing the fungal spores/mycelia fragments is then added to give an end concentration of the tested compound. The test plates are incubated in the dark at 24° C. and 96% relative humidity. The inhibition of fungal growth is determined photometrically after 2 to 7 days, depending on the pathosystem, and percent antifungal activity relative to the untreated check is calculated.
Example 4: Fungicidal Activity Against Glomerella laqenarium (Colletotrichum lagenarium) Liquid Culture/Cucumber/Preventative (Anthracnose)
Conidia of the fungus from cryogenic storage are directly mixed into nutrient broth (PDB—potato dextrose broth). After placing a (DMSO) solution of test compound into a microtiter plate (96-well format), the nutrient broth containing the fungal spores is added. The test plates are incubated at 24° C. and the inhibition of growth is measured photometrically 3 to 4 days after application.
The following compounds at 20 ppm in the applied formulation give at least 80% disease control in this test when compared to untreated control under the same conditions, which show extensive disease development.

CCOCCCNC(=O)c1ccc(-c2noc(C(F)(F)F)n2)cc1 [Compound 3a.22, N-(3-ethoxypropyl)-4-[5-(trifluoromethyl)-1,2,4-oxadiazol-3-yl]benzamide]
≥ 80%: pest or weed control at 200 ppm [1] | pest or weed control at 200 ppm [2] | pest or weed control at 200 ppm (Phakopsora pachyrhizi) | inhibition at 20 ppm [3]

O=C(NCCCCO)c1ccc(-c2noc(C(F)(F)F)n2)cc1 [Compound 3a.24, N-(4-hydroxybutyl)-4-[5-(trifluoromethyl)-1,2,4-oxadiazol-3-yl]benzamide]
≥ 80%: pest or weed control at 200 ppm [1] | pest or weed control at 200 ppm [2] | pest or weed control at 200 ppm (Phakopsora pachyrhizi) | inhibition at 20 ppm [3]

CC(C)(O)CNC(=O)c1ccc(-c2noc(C(F)(F)F)n2)cc1 [Compound 3a.27, N-(2-hydroxy-2-methyl-propyl)-4-[5-(trifluoromethyl)-1,2,4-oxadiazol-3-yl]benzamide]
≥ 80%: pest or weed control at 200 ppm [1] | pest or weed control at 200 ppm [2] | pest or weed control at 200 ppm (Phakopsora pachyrhizi) | inhibition at 20 ppm [3]

C=CCN(CC)C(=O)c1ccc(-c2noc(C(F)(F)F)n2)cc1 [Compound 3a.28, N-allyl-N-ethyl-4-[5-(trifluoromethyl)-1,2,4-oxadiazol-3-yl]benzamide]
≥ 80%: pest or weed control at 200 ppm [1] | pest or weed control at 200 ppm [2] | pest or weed control at 200 ppm (Phakopsora pachyrhizi) | inhibition at 20 ppm [3]

CCN(CC)C(=O)c1ccc(-c2noc(C(F)(F)F)n2)cc1 [Compound 3a.30, N,N-diethyl-4-[5-(trifluoromethyl)-1,2,4-oxadiazol-3-yl]benzamide]
≥ 80%: pest or weed control at 200 ppm [1] | pest or weed control at 200 ppm [2] | pest or weed control at 200 ppm (Phakopsora pachyrhizi) | inhibition at 20 ppm [3]

C=C(C)CN(CC)C(=O)c1ccc(-c2noc(C(F)(F)F)n2)cc1 [Compound 3a.31, N-ethyl-N-(2-methylallyl)-4-[5-(trifluoromethyl)-1,2,4-oxadiazol-3-yl]benzamide]
≥ 80%: pest or weed control at 200 ppm [1] | pest or weed control at 200 ppm [2] | pest or weed control at 200 ppm (Phakopsora pachyrhizi) | inhibition at 20 ppm [3]

CC(C)(C)NC(=O)c1ccc(-c2noc(C(F)(F)F)n2)cc1 [Compound 3a.32, N-tert-butyl-4-[5-(trifluoromethyl)-1,2,4-oxadiazol-3-yl]benzamide]
≥ 80%: pest or weed control at 200 ppm [1] | pest or weed control at 200 ppm [2] | pest or weed control at 200 ppm (Phakopsora pachyrhizi) | inhibition at 20 ppm [3]

CCCN(C)C(=O)c1ccc(-c2noc(C(F)(F)F)n2)cc1 [Compound 3a.33, N-methyl-N-propyl-4-[5-(trifluoromethyl)-1,2,4-oxadiazol-3-yl]benzamide]
≥ 80%: pest or weed control at 200 ppm [1] | pest or weed control at 200 ppm [2] | pest or weed control at 200 ppm (Phakopsora pachyrhizi) | inhibition at 20 ppm [3]

CCN(C(=O)c1ccc(-c2noc(C(F)(F)F)n2)cc1)C(C)C [Compound 3a.34, N-ethyl-N-isopropyl-4-[5-(trifluoromethyl)-1,2,4-oxadiazol-3-yl]benzamide]
≥ 80%: pest or weed control at 200 ppm [1] | pest or weed control at 200 ppm [2] | pest or weed control at 200 ppm (Phakopsora pachyrhizi) | inhibition at 20 ppm [3]

CN(C(=O)c1ccc(-c2noc(C(F)(F)F)n2)cc1)C(C)(C)C [Compound 3a.35, N-tert-butyl-N-methyl-4-[5-(trifluoromethyl) 1,2,4-oxadiazol-3-yl]benzamide]
≥ 80%: pest or weed control at 200 ppm [1] | pest or weed control at 200 ppm [2] | pest or weed control at 200 ppm (Phakopsora pachyrhizi) | inhibition at 20 ppm [3]

CCCCN(C)C(=O)c1ccc(-c2noc(C(F)(F)F)n2)cc1 [Compound 3a.36, N-butyl-N-methyl-4-[5-(trifluoromethyl)-1,2,4-oxadiazol-3-yl]benzamide]
≥ 80%: pest or weed control at 200 ppm [1] | pest or weed control at 200 ppm [2] | pest or weed control at 200 ppm (Phakopsora pachyrhizi) | inhibition at 20 ppm [3]

COCC(C)NC(=O)c1ccc(-c2noc(C(F)(F)F)n2)cc1 (centres unmarked) [Compound 3a.37, N-(2-methoxy-1-methyl-ethyl)-4-[5-(trifluoromethyl)-1,2,4-oxadiazol-3-yl]benzamide]
≥ 80%: pest or weed control at 200 ppm [1] | pest or weed control at 200 ppm [2] | pest or weed control at 200 ppm (Phakopsora pachyrhizi) | inhibition at 20 ppm [3]

CC(C)CCNC(=O)c1ccc(-c2noc(C(F)(F)F)n2)cc1 [Compound 3a.38, N-isopentyl-4-[5-(trifluoromethyl)-1,2,4-oxadiazol-3-yl]benzamide]
≥ 80%: pest or weed control at 200 ppm [1] | pest or weed control at 200 ppm [2] | pest or weed control at 200 ppm (Phakopsora pachyrhizi) | inhibition at 20 ppm [3]

CC(C)OCCNC(=O)c1ccc(-c2noc(C(F)(F)F)n2)cc1 [Compound 3a.40, N-(2-isopropoxyethyl)-4-[5-(trifluoromethyl)-1,2,4-oxadiazol-3-yl]benzamide]
≥ 80%: pest or weed control at 200 ppm [1] | pest or weed control at 200 ppm [2] | pest or weed control at 200 ppm (Phakopsora pachyrhizi) | inhibition at 20 ppm [3]

C#CCN(C)C(=O)c1ccc(-c2noc(C(F)(F)F)n2)cc1 [Compound 3a.41, N-methyl-N-prop-2-ynyl-4-[5-(trifluoromethyl)-1,2,4-oxadiazol-3-yl]benzamide]
≥ 80%: pest or weed control at 200 ppm [1] | pest or weed control at 200 ppm [2] | pest or weed control at 200 ppm (Phakopsora pachyrhizi) | inhibition at 20 ppm [3]

CN(CCOC(F)F)C(=O)c1ccc(-c2noc(C(F)(F)F)n2)cc1 [Compound 3a.44, N-[2-(difluoromethoxy)ethyl]-N-methyl-4-[5-(trifluoromethyl)-1,2,4-oxadiazol-3-yl]benzamide]
≥ 80%: pest or weed control at 200 ppm [1] | pest or weed control at 200 ppm [2] | pest or weed control at 200 ppm (Phakopsora pachyrhizi) | inhibition at 20 ppm [3]

CCC(C)NC(=O)c1ccc(-c2noc(C(F)(F)F)n2)cc1F (centres unmarked) [Compound 3b.10, 2-fluoro-N-sec-butyl-4-[5-(trifluoromethyl)-1,2,4-oxadiazol-3-yl]benzamide]
≥ 80%: pest or weed control at 200 ppm [1] | pest or weed control at 200 ppm [2] | pest or weed control at 200 ppm (Phakopsora pachyrhizi) | inhibition at 20 ppm [3]
